# Laboratory results taken from publication PMC4018390, “Important Role of CYP2J2 in Protein Kinase Inhibitor Degradation: A Possible Role in Intratumor Drug Disposition and Resistance” (PLoS ONE, 2014).
# Like-named read-outs stand apart in the source and are kept apart here.
# Columns and labels:
# CYP2J2 [1] = conditions: approved drugs identified as CYP2J2 inhibitors; cited from earlier work
# CYP1B1 [2] = target: T1, CYP1B1 (Homo sapiens, UniProt Q16678); assay: TKI disappearance in microsomal incubations with cDNA expressed CYP1B1; assay type: in vitro ADME; set-up: purchased BD Bioscience (Belgium), BD Gentest; host or cells: insect cells; conditions: TKI 2.5 µM at T = 0, first 10 minutes, 20 picomoles of CYP
# T1 sequence (Q16678 1-543): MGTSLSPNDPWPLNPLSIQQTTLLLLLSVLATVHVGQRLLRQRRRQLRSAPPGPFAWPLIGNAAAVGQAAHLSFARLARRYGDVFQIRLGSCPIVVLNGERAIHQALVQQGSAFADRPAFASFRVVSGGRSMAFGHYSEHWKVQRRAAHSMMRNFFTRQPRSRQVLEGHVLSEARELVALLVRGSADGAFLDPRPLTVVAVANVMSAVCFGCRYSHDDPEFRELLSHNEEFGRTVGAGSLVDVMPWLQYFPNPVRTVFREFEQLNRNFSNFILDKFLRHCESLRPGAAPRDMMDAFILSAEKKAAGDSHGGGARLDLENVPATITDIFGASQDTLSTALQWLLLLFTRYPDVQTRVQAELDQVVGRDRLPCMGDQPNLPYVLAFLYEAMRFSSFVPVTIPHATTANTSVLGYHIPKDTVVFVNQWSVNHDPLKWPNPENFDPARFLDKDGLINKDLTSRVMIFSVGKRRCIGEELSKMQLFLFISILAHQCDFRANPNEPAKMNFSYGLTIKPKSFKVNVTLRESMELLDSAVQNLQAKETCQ
# Experimental: (§1) The disappearance rate was calculated after 10 min (see Table 1 ) taking into account the percent of TKI removed from the incubation (0.25 nmole of TKI and 20 pmoles of CYP in 100 µL) and are expressed in (nmole of degraded TKI/(nanomole of CYP×min)).
# (§2) Protein pellets were discarded.
# CYP1A1 [3] = target: T2, CYP1A1 (Homo sapiens, UniProt P04798); assay: TKI disappearance in microsomal incubations with cDNA expressed CYP1A1; assay type: in vitro ADME; set-up: purchased BD Bioscience (Belgium), BD Gentest; host or cells: insect cells
# T2 sequence (P04798 1-512): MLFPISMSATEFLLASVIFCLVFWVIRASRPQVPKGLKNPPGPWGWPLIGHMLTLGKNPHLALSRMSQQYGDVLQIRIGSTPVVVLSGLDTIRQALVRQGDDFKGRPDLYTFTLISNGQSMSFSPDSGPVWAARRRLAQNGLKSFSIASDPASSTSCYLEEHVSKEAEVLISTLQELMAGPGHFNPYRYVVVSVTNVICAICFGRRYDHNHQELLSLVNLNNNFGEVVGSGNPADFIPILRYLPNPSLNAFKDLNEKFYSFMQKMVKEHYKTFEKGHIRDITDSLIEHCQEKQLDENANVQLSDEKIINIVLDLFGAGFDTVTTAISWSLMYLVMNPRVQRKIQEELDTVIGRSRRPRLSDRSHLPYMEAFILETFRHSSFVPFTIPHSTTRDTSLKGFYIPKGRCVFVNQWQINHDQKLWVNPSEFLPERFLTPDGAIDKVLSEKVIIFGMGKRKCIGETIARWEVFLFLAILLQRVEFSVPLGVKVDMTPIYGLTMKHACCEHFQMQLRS
# Experimental: as §1, §2
# CYP1B1 [4] = target: T1, CYP1B1; assay: TKI disappearance in culture media of HepG2 cells infected with adenovirus expressing CYP1B1; conditions: up to 72 hours, result in words
# CYP1A1 [5] = target: T2, CYP1A1; assay: Michaelis-Menten kinetics of TKI metabolite production, cDNA expressed CYP1A1 microsomes; conditions: for Relative Intrinsic Clearance: Vmax/Km for production of the labelled metabolite, as fold difference of the intrinsic clearance of CYP3A4; for Km: read-out: Affinity Constant, Km, Km of the parent TKI for production of the labelled metabolite, 10 pmoles CYP, TKI 0.5-20 µM, 15 min
# CYP3A4 [6] = target: T3, CYP3A4 (Homo sapiens, UniProt P08684); assay: Michaelis-Menten kinetics of TKI metabolite production, cDNA expressed CYP3A4 microsomes; conditions: for Km: read-out: Affinity Constant, Km, CYP3A4, Km of the parent TKI for production of the labelled metabolite, 10 pmoles CYP, TKI 0.5-20 µM, 15 min
# T3 sequence (P08684 whole entry): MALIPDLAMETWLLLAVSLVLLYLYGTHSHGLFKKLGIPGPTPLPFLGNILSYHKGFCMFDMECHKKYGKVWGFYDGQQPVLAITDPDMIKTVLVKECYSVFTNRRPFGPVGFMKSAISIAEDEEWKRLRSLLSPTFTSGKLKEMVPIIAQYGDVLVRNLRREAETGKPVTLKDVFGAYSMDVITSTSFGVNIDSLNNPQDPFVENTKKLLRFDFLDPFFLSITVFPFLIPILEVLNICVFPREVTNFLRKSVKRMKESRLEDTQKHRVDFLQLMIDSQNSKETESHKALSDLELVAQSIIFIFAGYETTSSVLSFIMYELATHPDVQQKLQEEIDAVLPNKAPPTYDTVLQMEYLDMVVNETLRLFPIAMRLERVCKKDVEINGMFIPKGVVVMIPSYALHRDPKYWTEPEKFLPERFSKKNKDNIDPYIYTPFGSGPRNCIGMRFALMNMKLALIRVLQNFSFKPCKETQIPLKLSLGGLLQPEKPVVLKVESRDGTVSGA
# CYP1B1 [7] = target: T1, CYP1B1; assay: Michaelis-Menten kinetics of TKI metabolite production, cDNA expressed CYP1B1 microsomes; conditions: for Relative Intrinsic Clearance: Vmax/Km for production of the labelled metabolite, as fold difference of the intrinsic clearance of CYP3A4; for Km: read-out: Affinity Constant, Km, Km of the parent TKI for production of the labelled metabolite, 10 pmoles CYP, TKI 0.5-20 µM, 15 min
# CYP2J2 [8] = target: T4, CYP2J2 (Homo sapiens, UniProt P51589); assay: Michaelis-Menten kinetics of TKI metabolite production, cDNA expressed CYP2J2 microsomes; conditions: for Km: read-out: Affinity Constant, Km, Km of the parent TKI for production of the labelled metabolite, 10 pmoles CYP, TKI 0.5-20 µM, 15 min
# T4 sequence (P51589 1-502): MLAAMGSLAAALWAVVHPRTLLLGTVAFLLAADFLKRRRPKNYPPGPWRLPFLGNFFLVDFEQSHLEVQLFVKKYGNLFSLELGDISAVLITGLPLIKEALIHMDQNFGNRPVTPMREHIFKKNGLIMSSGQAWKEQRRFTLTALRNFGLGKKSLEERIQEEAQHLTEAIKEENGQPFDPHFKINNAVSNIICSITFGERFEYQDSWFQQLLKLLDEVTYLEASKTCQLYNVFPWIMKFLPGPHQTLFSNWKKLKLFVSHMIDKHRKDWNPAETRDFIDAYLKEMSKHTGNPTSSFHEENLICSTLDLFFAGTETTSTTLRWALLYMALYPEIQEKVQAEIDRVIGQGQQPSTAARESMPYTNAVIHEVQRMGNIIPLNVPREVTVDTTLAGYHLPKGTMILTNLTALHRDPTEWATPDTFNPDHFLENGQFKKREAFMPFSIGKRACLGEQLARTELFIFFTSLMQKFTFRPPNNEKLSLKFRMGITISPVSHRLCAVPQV
# CYP3A4 [9] = target: T3, CYP3A4; conditions: 2.5 µM, pH 7.4; for Disappearance rate in microsomal incubations: 10 min; for TKI levels removed from incubations: 30 min
# Experimental: as §1, §2
# CYP2J2 [10] = target: T4, CYP2J2; conditions: 2.5 µM, pH 7.4; for Disappearance rate in microsomal incubations: 10 min; for TKI levels removed from incubations: 30 min
# Experimental: as §1, §2
# CYP2J2 [11] = target: T4, CYP2J2; assay: TKI disappearance in culture media of HepG2 cells infected with adenovirus expressing CYP2J2; conditions: up to 72 hours, result in words
# Text: as §2
# CYP1A1 [12] = target: T2, CYP1A1; conditions: HepG2 cells infected with CYP1A1 adenovirus; up to 72 hours; result in words
# Text: as §2
# CYP1A1 [13] = target: T2, CYP1A1; set-up: purchased BD Bioscience (Belgium), BD Gentest; host or cells: insect cells; method as in earlier work; conditions: compared with CYP1B1 and 3A4, ref 22 (Kamath et al.); cited from earlier work
# CYP1B1 [14] = target: T1, CYP1B1; set-up: purchased BD Bioscience (Belgium), BD Gentest; host or cells: insect cells; method as in earlier work; conditions: compared with CYP1A1 and 3A4, ref 22 (Kamath et al.); cited from earlier work
# CYP3A4 [15] = target: T3, CYP3A4; set-up: purchased BD Bioscience (Belgium), BD Gentest; host or cells: insect cells; method as in earlier work; conditions: compared with CYP1A1 and 1B1, ref 22 (Kamath et al.); cited from earlier work
# CYP1A1 [16] = target: T2, CYP1A1; conditions: read-out: Affinity Constant, Km, Km of the parent TKI (imatinib) for production of the labelled metabolite, values marked (*), previous published study ref 18; cited from earlier work
# [17] = CYP1A1, TKI 2.5 µM at T = 0, first 10 minutes, 20 picomoles of CYP
compound,measurement,setting,value
Fc1ccc(C(c2ccc(F)cc2)N2CCN(C/C=C/c3ccccc3)CC2)cc1 [flunarizine],CYP2J2 inhibition,CYP2J2 [1],CYP2J2 inhibitors
"CNC(=O)c1cc(Oc2ccc(NC(=O)Nc3ccc(Cl)c(C(F)(F)F)c3)cc2)ccn1 [Sorafenib, sorafenib]",Disappearance rate in microsomal incubations,CYP1B1 [2],0.0 nmoles of TKI degraded/(min×nmole of CYP)
same,Disappearance rate in microsomal incubations,CYP1A1 [3]; [17],0.4 nmoles of TKI degraded/(min×nmole of CYP)
same,TKI removal from HepG2 cell culture media,CYP1B1 [4],very slowly by CYP1B1
Cc1nc(Nc2ncc(C(=O)Nc3c(C)cccc3Cl)s2)cc(N2CCNCC2)n1 [dehydroxyethyl-dasatinib],Relative Intrinsic Clearance,CYP1A1 [5],0.5 fold diff.
same,Km,CYP1A1 [5],4.7 µM
same,Relative Intrinsic Clearance,"CYP3A4 [6]; CYP3A4 (reference, set to 1.0), Vmax/Km for production of the labelled metabolite",1.0 fold diff.
same,Km,CYP3A4 [6],71.4 µM
same,Relative Intrinsic Clearance,CYP1B1 [7],1.1 fold diff.
same,Km,CYP1B1 [7],2.2 µM
same,Relative Intrinsic Clearance,"CYP2J2 [8]; Vmax/Km for production of the labelled metabolite, as fold difference of the intrinsic clearance of CYP3A4",0.5 fold diff.
same,Km,CYP2J2 [8],3.9 µM
"Cc1cn(-c2cc(NC(=O)c3ccc(C)c(Nc4nccc(-c5cccnc5)n4)c3)cc(C(F)(F)F)c2)cn1 [Nilotinib, nilotinib]",Disappearance rate in microsomal incubations,CYP3A4 [9],1.2 nmoles of TKI degraded/(min×nmole of CYP)
same,TKI levels removed from incubations,CYP3A4 [9],more than 60%
same,Disappearance rate in microsomal incubations,CYP2J2 [10],0.7 nmoles of TKI degraded/(min×nmole of CYP)
same,TKI levels removed from incubations,CYP2J2 [10],more than 60%
same,TKI removal from HepG2 cell culture media,CYP2J2 [11],mainly removed by CYP2J2
same,Disappearance rate in microsomal incubations,CYP1B1 [2],0.3 nmoles of TKI degraded/(min×nmole of CYP)
same,Disappearance rate in microsomal incubations,CYP1A1 [3]; [17],0.2 nmoles of TKI degraded/(min×nmole of CYP)
same,TKI removal from HepG2 cell culture media,CYP1B1 [4],very slowly by CYP1B1
C#C[C@]1(O)CC[C@H]2[C@@H]3CCC4=Cc5oncc5C[C@]4(C)[C@H]3CC[C@@]21C [danazol],CYP2J2 inhibition,CYP2J2 [1],CYP2J2 inhibitors
"CCNCCNC(=O)c1c(C)[nH]c(/C=C2\C(=O)Nc3ccc(F)cc32)c1C [E-deethyl-sunitinib #1, E-deethyl-sunitinib]",Relative Intrinsic Clearance,CYP1A1 [5],0.1 fold diff.
same,Km,CYP1A1 [5],6.9 µM
same,Relative Intrinsic Clearance,CYP1B1 [7],0.1 fold diff.
same,Km,CYP1B1 [7],2.7 µM
"CCNCCNC(=O)c1c(C)[nH]c(/C=C2\C(=O)Nc3ccc(F)cc32)c1C [Z-deethyl-sunitinib #2, Z-deethyl-sunitinib]",Relative Intrinsic Clearance,CYP1A1 [5],0.2 fold diff.
same,Km,CYP1A1 [5],6.7 µM
same,Relative Intrinsic Clearance,CYP1B1 [7],0.1 fold diff.
CCCc1nc2c(C)cc(-c3nc4ccccc4n3C)cc2n1Cc1ccc(-c2ccccc2C(=O)O)cc1 [telmisartan],CYP2J2 inhibition,CYP2J2 [1],CYP2J2 inhibitors
"Cc1nc(Nc2ncc(C(=O)Nc3c(C)cccc3Cl)s2)cc(N2CCN(CCO)CC2)n1 [Dasatinib, dasatinib]",TKI removal from HepG2 cell culture media,CYP1A1 [12],CYP2J2>CYP1A1>CYP1B1
same,Degradation in similar microsomal incubations,CYP1A1 [13],comparable rate of disappearance
same,Degradation in similar microsomal incubations,CYP1B1 [14],comparable rate of disappearance
same,Disappearance rate in microsomal incubations,CYP3A4 [9],1.2 nmoles of TKI degraded/(min×nmole of CYP)
same,TKI levels removed from incubations,CYP3A4 [9],more than 60%
same,Disappearance rate in microsomal incubations,CYP2J2 [10],1.1 nmoles of TKI degraded/(min×nmole of CYP)
same,TKI levels removed from incubations,CYP2J2 [10],more than 60%
same,TKI removal from HepG2 cell culture media,CYP2J2 [11],CYP2J2>CYP1A1>CYP1B1
same,Disappearance rate in microsomal incubations,CYP1B1 [2],1.0 nmoles of TKI degraded/(min×nmole of CYP)
same,Disappearance rate in microsomal incubations,CYP1A1 [3]; [17],0.9 nmoles of TKI degraded/(min×nmole of CYP)
same,TKI removal from HepG2 cell culture media,CYP1B1 [4],CYP2J2>CYP1A1>CYP1B1
same,Degradation in similar microsomal incubations,CYP3A4 [15],comparable rate of disappearance
Cc1ccc(NC(=O)c2ccc(CN3CCNCC3)cc2)cc1Nc1nccc(-c2cccnc2)n1 [N-demethyl-imatinib],Km,CYP1A1 [16],7.6 µM
N-oxide-nilotinib [NO-nilotinib #1],Km,CYP1A1 [5],3 µM
same,Km,CYP3A4 [6],27.6 µM
same,Km,CYP2J2 [8],0.8 µM
"CCN(CC)CCNC(=O)c1c(C)[nH]c(/C=C2\C(=O)Nc3ccc(F)cc32)c1C [Sunitinib, sunitinib]",TKI removal from HepG2 cell culture media,CYP1A1 [12],equal rate for CYP1A1 and 2J2
same,Disappearance rate in microsomal incubations,CYP1B1 [2],0.1 nmoles of TKI degraded/(min×nmole of CYP)
same,Disappearance rate in microsomal incubations,CYP1A1 [3],0.6 nmoles of TKI degraded/(min×nmole of CYP)
